In PubChem BioAssay (NCI):
Where “and” joins values, the source holds several entries; their conditions need not be identical. Equal entries are not always repeated.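 These data come from cells grown in 96-well plates and exposed to compound for 48 hours at five concentrations. At the GI50, growth is halved. TGI marks complete inhibition of growth.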

How the values were obtained:
Assay in all cases: inhibition of tumour cell growth, NCI panel, 48 h
MDA-MB-435 = system: MDA-MB-435
NCI-H522 lung = system: NCI-H522 lung
RPMI-8226 leukemia = system: RPMI-8226 leukemia
NCI-H23 lung = system: NCI-H23 lung
HT29 colon = system: HT29 colon
NCI-H460 lung = system: NCI-H460 lung
T-47D breast = system: T-47D breast
PC-3 prostate = system: PC-3 prostate
ACHN renal = system: ACHN renal
OVCAR-4 ovarian = system: OVCAR-4 ovarian

| SMILES | GI50 (MDA-MB-435) | TGI (MDA-MB-435) | GI50 (NCI-H522 lung) | TGI (NCI-H522 lung) | GI50 (RPMI-8226 leukemia) | TGI (RPMI-8226 leukemia) | GI50 (NCI-H23 lung) | TGI (NCI-H23 lung) | GI50 (HT29 colon) | TGI (HT29 colon) | GI50 (NCI-H460 lung) | TGI (NCI-H460 lung) | GI50 (T-47D breast) | TGI (T-47D breast) | GI50 (PC-3 prostate) | TGI (PC-3 prostate) | GI50 (ACHN renal) | TGI (ACHN renal) | GI50 (OVCAR-4 ovarian) | TGI (OVCAR-4 ovarian) |
| --- | --- | --- | --- | --- | --- | --- | --- | --- | --- | --- | --- | --- | --- | --- | --- | --- | --- | --- | --- | --- |
| COc1ccc(-c2nn3ncccc3c2-c2ccnc(Nc3ccc(Cl)c(C(F)(F)F)c3)n2)cc1 | 9.69 µM | > 25 µM | 12.4 µM | > 25 µM | 8.28 µM | > 25 µM | 10.6 µM | > 25 µM | 9.88 µM | > 25 µM | 8.45 µM | > 25 µM | 7.21 µM | > 25 µM | 6.2 µM | > 25 µM | 10.1 µM | > 25 µM | 8.66 µM | > 25 µM |
| CS(=O)(=O)CCNCc1nc(-c2ccc3ncnc(Nc4ccc(F)c(Cl)c4)c3c2)cs1 | 18 µM | > 25 µM | 3.34 µM | > 25 µM | > 21.4 µM | > 25 µM | > 25 µM | > 25 µM | 16.5 µM | > 25 µM | 18.7 µM | > 25 µM | 8.57 µM | > 25 µM | 14.7 µM | > 25 µM | 0.785 µM | > 25 µM | 14.7 µM | > 25 µM |
| C=C1CC2(OC1=O)C(=O)N(CCCCCCCN1C(=O)C3(CC(=C)C(=O)O3)c3ccccc31)c1ccccc12 (stereo not given) | 1.29 µM | 3.92 µM | 0.82 µM | 1.85 µM | 0.841 µM | 3.33 µM | 3.71 µM | 11.6 µM | 1.49 µM | 5.4 µM | 2.9 µM | 12.3 µM | 1.17 µM | 5.02 µM | 1.53 µM | 6.58 µM | 1.13 µM | 3.07 µM | 2.01 µM | 7.6 µM |
| COc1nc(N(C)O)nc(N(C)O)n1 | 3.76 µM | > 100 µM | 2.53 µM | > 100 µM | 1.32 µM | > 100 µM | 2.14 µM | > 100 µM | 1.03 µM | > 100 µM | 0.454 µM | 8.62 µM | 4.51 µM | > 100 µM | 3.1 µM | > 100 µM | 0.625 µM | > 100 µM | 2.33 µM | > 100 µM |
| N#Cc1c(-c2nc3ccccc3s2)c(=O)oc2cc(O)ccc12 |  | > 100 µM |  | > 100 µM |  | > 100 µM |  | > 100 µM |  | > 100 µM |  | > 100 µM |  | 78.2 µM |  | > 100 µM |  | > 100 µM |  | > 100 µM |
| O=P(O)(CCP(=O)(O)c1ccccc1)c1ccccc1 |  | > 100 µM |  | > 100 µM |  | > 100 µM |  | > 100 µM |  | > 100 µM |  | > 100 µM |  | > 100 µM |  | > 100 µM |  | > 100 µM |  | > 100 µM |
| CC(=O)Nc1ccc2c(c1)c(C1=C(c3cn(C)c4ccccc34)C(=O)NC1=O)cn2C | 0.198 µM | > 25 µM | 0.702 µM | > 6.59 µM | 1.22 µM | > 22.1 µM | 5.45 µM | > 25 µM | 0.925 µM | > 25 µM | 0.986 µM | > 25 µM | 1.66 µM | > 25 µM | 0.754 µM | 22.1 µM | 1.57 µM | > 25 µM | 2.54 µM | > 17.6 µM |
| COc1ccc2c(c1)/C(=C\c1c(C)nc3sc(C)cn13)C(=O)N2C | 1.51 µM | 5.72 µM | 2.54 µM | 8.44 µM | 4.75 µM | > 100 µM | 8.04 µM | 35.3 µM | 3.27 µM | 19.2 µM | 3.54 µM | 36.6 µM | 1.78 µM | 5.35 µM | 6.9 µM | 62.4 µM | 4.82 µM | 62.7 µM | 26.4 µM | > 100 µM |
| Cc1ncc(CN=Cc2ccc(Cl)cc2)c(N)n1 |  | > 100 µM |  | > 100 µM |  | > 100 µM |  | > 100 µM |  | > 100 µM |  | > 100 µM |  | > 100 µM |  | > 100 µM |  | > 100 µM |  | > 100 µM |
| CNc1ccc2nc3ccc(=[N+](C)C)cc-3sc2c1 | 0.547 µM and 0.785 µM | 2.33 µM and 2.85 µM | 0.291 µM and 0.465 µM | 1.33 µM and 3.79 µM | 0.287 µM and 0.8 µM | 14.6 µM and 28 µM | 0.817 µM and 0.323 µM | 7.91 µM and 2.75 µM | 2.92 µM and 3.06 µM | 12.2 µM and 12.5 µM | 2.32 µM and 0.879 µM | 18.5 µM and 11.5 µM | 1.86 µM and 0.489 µM | 8.9 µM and 12.5 µM | 0.41 µM and 0.203 µM | 11.6 µM and 2.87 µM | 0.815 µM and 1.02 µM | 10.6 µM and 4.23 µM | 0.398 µM and 0.299 µM | 1.74 µM and 1.9 µM |
| COc1cc(O)c([C@@H]2C[C@H](CCc3ccc(O)cc3)O[C@H](c3ccc(O)cc3)C2)c(O)c1C(=O)/C=C/c1ccc(O)cc1 | 3.14 µM | 10.8 µM | 2.73 µM | 8.52 µM | 2.11 µM | 4.68 µM | 2.57 µM | 5.71 µM | 3.31 µM | 10.2 µM | 2.71 µM | 7.49 µM | 2.93 µM | 9.77 µM | 2.45 µM | 6.94 µM | 2.43 µM | 6.01 µM | 3.8 µM | 29.5 µM |
| CCOC(=O)c1ccc(NC(=O)N2CC(C)OC(C)C2)cc1 (stereo not given) | > 100 µM | > 100 µM | > 100 µM | > 100 µM | > 100 µM | > 100 µM | > 100 µM | > 100 µM | > 100 µM | > 100 µM | > 100 µM | > 100 µM | > 100 µM | > 100 µM | > 100 µM | > 100 µM | > 100 µM | > 100 µM | > 100 µM | > 100 µM |
